# Test results from US20170326100A1, “COMPOSITION FOR ACTIVATING LONGEVITY GENE” (AMOREPACIFIC CORPORATION, priority 2014, published 2017).
# Entries after “also recorded” stand apart in the source; their conditions may differ.
# Tests used:
# XPD mRNA [1] = test: XPD activation: relative expression of XPD mRNA in keratinocytes (TaqMan RT-PCR); assay type: cell-based, human; conditions: keratinocytes (NHK), 10 ppm, 37° C. 24 hours, control = 1.0
# Description: (§1) Experiment was conducted using normal human keratinocytes (NHK) and normal human fibroblasts (NHF) to investigate the effect of a methylated catechin. Specifically, 2×10^5 NHFs (normal human fibroblasts) purchased from Lonza (Allendale, N.J., USA) were cultured on a 60-mm dish at 37° C. for 24 hours using DMEM. The medium was discarded and the cells were transferred to a new tissue culture flask. Also, NHEKs (normal human epidermal keratinocytes, corresponding to NHK) purchased from Lonza (Allendale, N.J., USA) were cultured using a keratinocyte growth medium (KGM-GOLD, Lonza, Allendale, N.J., USA). The cells were detached with 0.025% trypsin and transferred to a new tissue culture flask after subculturing.
# (§2) Specifically, after treating the keratinocytes (NHK) and the fibroblasts (NHF) with each of retinol, green tea EGCG and green tea EGCG″3Me at 10 ppm, followed by incubation at 37° C. for 24 hours, total RNA was isolated from the cells and the relative expression of XPD mRNA was compared.
# (§3) The total RNA was isolated using TRIzol™ (Invitrogen, Carlsbad, Calif., USA) according to the manufacturer's protocol. RNA concentration was measured spectrophotometrically and RNA integrity was measured using BioAnalyzer 2100 (Agilent Technologies, Santa Clara, Calif., USA). 4 μg of RNA was reverse transcribed to cDNA using SuperScript®III reverse transcriptase (Invitrogen, Carlsbad, Calif., USA). The cDNA was stored at −70° C. The expression level of the target gene was measured by quantitative real-time TaqMan RT-PCR (7500Fast, Applied Biosystems, Foster City, Calif., USA). The cycle condition was 10 minutes at 95° C., 50 cycles of […] at 95° C. and 1 minute at 60° C.
# XPD mRNA [2] = test: XPD activation: relative expression of XPD mRNA in fibroblasts (TaqMan RT-PCR); assay type: cell-based, human; conditions: fibroblasts (NHF), 10 ppm, 37° C. 24 hours, control = 1.0
# Description: as §1, §2, §3
# Klotho mRNA [3] = test: Klotho activation: relative expression of Klotho mRNA in keratinocytes (TaqMan RT-PCR); assay type: cell-based, human; conditions: keratinocytes (NHK), 24 hours, control = 1.0
# Description: as §1
# (§4) Specifically, after treating the keratinocytes (NHK) and the fibroblasts (NHF) with each of retinol (10 ppm), green tea EGCG (1 and 10 ppm) and green tea EGCG″3Me (1 and 10 ppm), followed by incubation at 37° C. for 24 hours, total RNA was isolated from the cells and the relative expression of Klotho mRNA was compared.
# as §3
# Klotho mRNA [4] = test: Klotho activation: relative expression of Klotho mRNA in fibroblasts (TaqMan RT-PCR); assay type: cell-based, human; conditions: fibroblasts (NHF), 24 hours, control = 1.0
# Description: as §1, §4, §3
# Sirt-1 mRNA [5] = test: Sirt-1 activation: relative expression of Sirt-1 mRNA in keratinocytes (TaqMan RT-PCR); assay type: cell-based, human; conditions: keratinocytes (NHK), 10 ppm, 24 hours, control = 1.0
# Description: as §1
# (§5) Specifically, after treating the keratinocytes (NHK) and the fibroblasts (NHF) with each of retinol, green tea EGCG and green tea EGCG″3Me at 10 ppm, followed by incubation at 37° C. for 24 hours, total RNA was isolated from the cells and the relative expression of Sirt-1 mRNA was compared.
# as §3
# Sirt-1 mRNA [6] = test: Sirt-1 activation: relative expression of Sirt-1 mRNA in fibroblasts (TaqMan RT-PCR); assay type: cell-based, human; conditions: fibroblasts (NHF), 10 ppm, 24 hours, control = 1.0
# Description: as §1, §5, §3
# ERCC8 mRNA [7] = test: ERCC8 activation: relative expression of ERCC8 mRNA in keratinocytes (TaqMan RT-PCR); assay type: cell-based, human; conditions: keratinocytes (NHK), 10 ppm, 24 hours, control = 1.0
# Description: as §1
# (§6) Specifically, after treating the keratinocytes (NHK) and the fibroblasts (NHF) with each of retinol, green tea EGCG and green tea EGCG″3Me at 10 ppm, followed by incubation at 37° C. for 24 hours, total RNA was isolated from the cells and the relative expression of ERCC8 mRNA was compared.
# as §3
# ERCC8 mRNA [8] = test: ERCC8 activation: relative expression of ERCC8 mRNA in fibroblasts (TaqMan RT-PCR); assay type: cell-based, human; conditions: fibroblasts (NHF), 10 ppm, 24 hours, control = 1.0
# Description: as §1, §6, §3
# Fox03 mRNA [9] = test: FoxO3 activation: relative expression of Fox03 mRNA in keratinocytes (TaqMan RT-PCR); assay type: cell-based, human; conditions: keratinocytes (NHK), 10 ppm, 24 hours, control = 1.0
# Description: as §1
# (§7) Specifically, after treating the keratinocytes (NHK) and the fibroblasts (NHF) with each of retinol, green tea EGCG and green tea EGCG″3Me at 10 ppm, followed by incubation at 37° C. for 24 hours, total RNA was isolated from the cells and the relative expression of Fox03 mRNA was compared.
# as §3
# Fox03 mRNA [10] = test: FoxO3 activation: relative expression of Fox03 mRNA in fibroblasts (TaqMan RT-PCR); assay type: cell-based, human; conditions: fibroblasts (NHF), 10 ppm, 24 hours, control = 1.0
# Description: as §1, §7, §3
# [11] = system: normal human epidermal keratinocytes (NHEKs); test: Evaluation of cellular differentiation of keratinocytes; assay type: cell-based; conditions: various concentrations, 48 hours, FIG. 1
# Description: In order to investigate the effect of the methylated catechin on the differentiation of keratinocytes, normal human epidermal keratinocytes (NHEKs) were treated with EGCG″3Me and EGCG at various concentrations for 48 hours.
Compound,relative expression of XPD mRNA (XPD mRNA [1]),relative expression of XPD mRNA (XPD mRNA [2]),relative expression of Klotho mRNA (Klotho mRNA [3]; 10 ppm),relative expression of Klotho mRNA (Klotho mRNA [4]; 10 ppm),relative expression of Sirt-1 mRNA (Sirt-1 mRNA [5]),relative expression of Sirt-1 mRNA (Sirt-1 mRNA [6]),relative expression of ERCC8 mRNA (ERCC8 mRNA [7]),relative expression of ERCC8 mRNA (ERCC8 mRNA [8]),relative expression of Fox03 mRNA (Fox03 mRNA [9]),relative expression of Fox03 mRNA (Fox03 mRNA [10]),relative expression of Klotho mRNA (Klotho mRNA [3]; 1 ppm),relative expression of Klotho mRNA (Klotho mRNA [4]; 1 ppm),differentiation of keratinocytes [11]
CC1=C(/C=C/C(C)=C/C=C/C(C)=C/CO)C(C)(C)CCC1 [Retinol],10.1,2.4,9.8,2.2,7.9,1.9,1.2,1.0,1.1,1.4,–,–,–
epigallocatechin-3-O-(3-O-methyl)gallate [Green tea EGCG3″Me],21.4,6.9,10.5,2.1,17.1,4.3,4.3,5.1,3.2,5.3,4.2,1.7,promoted the differentiation of the keratinocytes in a concentration-dependent manner; also recorded: superior differentiation of the keratinocytes at low concentration as compared to EGCG
"O=C(O[C@@H]1Cc2c(O)cc(O)cc2O[C@@H]1c1cc(O)c(O)c(O)c1)c1cc(O)c(O)c(O)c1 [Green tea EGCG, epigallocatechin gallate]",9.2,2.8,10.2,1.8,8.2,2.0,1.9,2.3,1.4,2.1,2.5,1.2,–
